Assay results from PubChem BioAssay AID449750 (Broad Institute, 2010).
Calls of active or inactive are those of the source. How the calls were made is not given here.

Experiment: non-covalent RecA intein splicing inhibitors, dose response, biochemical, cell-free, fluorescence, secondary screen (AID 449750)

| SMILES | AC50 |
| --- | --- |
| CC(C)(C)c1ccc(S(=O)(=O)/N=C2\C=C(NS(=O)(=O)c3ccccc3)C(=O)c3ccccc32)cc1 | 5.5 µM |
| Cc1ccccc1CS(=O)(=O)c1nnc([C@H](CC(C)C)NC(=O)OC(C)(C)C)o1 | > 38 µM (inactive) |
| O=C1C(Cl)=C(Nc2ccc3cn[nH]c3c2)C(=O)c2ccccc21 | 3.75 µM |
| CCSc1c([N+](=O)[O-])c(=O)n(-c2ccccc2)c2ccccc12 | > 38 µM (inactive) |
| COc1ccc(-c2cc(C(F)(F)F)nc(S(=O)(=O)CCCC(=O)Nc3cccc(O)c3)n2)cc1OC | > 38 µM (inactive) |
| CCN(CC)S(=O)(=O)c1ccc(N2CCN(S(=O)(=O)c3ccccc3C#N)CC2)nc1 | > 38 µM (inactive) |
| CCCCCC(=O)Cc1cc(O)cc2c1C(=O)Oc1cc(O)c(C(=O)O)c(CCCCC)c1O2 | 6.09 µM |
| CCCc1[nH]nc2c1C(c1cccc(OC)c1)C(C#N)=C(N)O2 (stereo not given) | > 38 µM (inactive) |
| Cc1ccc(N2C(=O)C(Cl)=C(N3CCN(C)CC3)C2=O)c(C)c1 | > 38 µM (inactive) |
| COC(=O)COc1c(Cl)cc(C(c2c(C)[nH][nH]c2=O)c2c(C)[nH][nH]c2=O)cc1OC | 27.8 µM |
| Cc1noc(C)c1COC(=O)Cc1ccc(Br)cc1 | > 38 µM (inactive) |
| Cc1nn(Cc2ccccc2)c2c1C(c1ccco1)C(C#N)=C(N)O2 (stereo not given) | > 38 µM (inactive) |
| CC(=O)N(Cc1ccc(F)cc1)C1=C(NCCc2ccccc2)C(=O)c2ccccc2C1=O | 7.58 µM |
| CC(C)CCn1c(N)c(C(=O)NCc2cccs2)c2nc3ccccc3nc21 | > 38 µM (inactive) |
| COc1cc(N=Nc2cccc(S(N)(=O)=O)c2)c2ccccc2c1N | 34.1 µM |
| C#CCOC(=O)c1ccccc1C(=O)n1nnc2ccccc21 | > 38 µM (inactive) |
| Cn1cnc([N+](=O)[O-])c1Oc1ccc2ccccc2c1 | > 38 µM (inactive) |
| Cc1ccc(NC2=C/C(=N\S(=O)(=O)c3cccs3)c3ccccc3C2=O)c(C)c1 | 0.304 µM |
| O=c1cc(-c2ccc(Cl)c(Cl)c2)[nH][nH]1 | 8.07 µM |
| CC(CCc1ccccc1)NC(=O)COC(=O)c1cc(NS(=O)(=O)c2ccc(Cl)c([N+](=O)[O-])c2)ccc1O (stereo not given) | 18.8 µM |
| CCCCn1c(N)c(C(=O)NCc2cccs2)c2nc3ccccc3nc21 | > 38 µM (inactive) |
| COC(=O)CCS(=O)(=O)c1nc(-c2ccccc2)cc(C(F)(F)F)n1 | > 38 µM (inactive) |
| Cc1[nH][nH]c(=O)c1C(c1cc(Br)ccc1O)c1c(C)[nH][nH]c1=O | 8.35 µM |
| COc1ccccc1/C=C/C1(C(=O)NC2CCCC2)CC(=O)N1c1ccc(C)cc1 (stereo not given) | 13.3 µM |
| [O-]C1=N/[N+](=C/c2ccc(Cl)cc2)CC1 | > 38 µM (inactive) |
| O=C1C(Nc2ccccc2)=C(N2CCCCC2)C(=O)c2ccccc21 | 12.6 µM |
| Fc1ccc(Nc2nc(Oc3ccccc3F)nc(N3CCCC3)n2)cc1 | > 38 µM (inactive) |

| SMILES | AC50 |
| --- | --- |
| Cc1nn(-c2ccccc2)c2c1C(c1ccncc1)C(C#N)=C(N)O2 (stereo not given) | > 38 µM (inactive) |
| O=C(NCCc1ccccc1)C(c1cccs1)N(C(=O)CCl)c1ccc(Cl)cc1 (stereo not given) | 1.03 µM |
| CCCc1nnc(NC(=O)c2nc(S(=O)(=O)Cc3ccc(C)cc3)ncc2Cl)s1 | 1.55 µM |
| CN1C=C/C(=C\c2cc[n+](C)c3ccccc23)c2ccccc21 | 29.3 µM |
| CCOC(=O)c1c(C)sc2c1N(C(=O)CCl)c1cc(Cl)ccc1S2 | 3.37 µM |
| Cc1[nH][nH]c(=O)c1C(c1ccccc1[N+](=O)[O-])C(C#N)C#N (stereo not given) | > 38 µM (inactive) |
| COc1ccccc1-c1cn[nH]c(=S)n1 | > 38 µM (inactive) |
| O=C(NC1(O)C(=O)c2ccccc2C1=O)c1c(Cl)cccc1Cl | 12.5 µM |
| Cc1ccc(NC(=O)CSc2ncnc3ccccc23)cc1S(=O)(=O)N1CCCCCC1 | 30.2 µM |
| O=C1C(Cl)=C(N2CCOCC2)C(=O)N1c1ccc(Br)cc1 | > 38 µM (inactive) |
| CCCCC(O)(CCCC)C(=O)NN(C(=O)CCl)c1ccccc1 | 6.32 µM |
| Cc1ccc(C(=O)c2coc3cc([N+](=O)[O-])c(O)c([N+](=O)[O-])c23)cc1 | > 38 µM (inactive) |
| O=[N+]([O-])c1ccc2nc(Cl)nc(-c3ccccc3)c2c1 | > 38 µM (inactive) |
| O=c1cc(-c2ccc(F)cc2)[nH][nH]1 | 17.2 µM |
| COc1cc(C2NC(=O)C(C#N)=C(Nc3cccc(C)c3)S2)ccc1O (stereo not given) | 3.17 µM |
| CC(C)[n+]1ccn(C2=C([O-])c3ccccc3C(=O)/C2=N\S(=O)(=O)c2ccccc2)c1 | 8.08 µM |
| CN(C)c1ccc(NC(=O)c2ccncc2)c2ccccc12 | > 38 µM (inactive) |
| N#CC1=C(N)C(C#N)(C#N)[C@H](c2c(F)cccc2F)[C@H]2CC3(CC=C12)OCCO3 | > 38 µM (inactive) |
| CCOC(=O)C(C(=O)OCC)c1cc(Br)c2noc3c2c1C(=O)c1ccccc1-3 | 8.74 µM |
| COc1cc(/C=C/c2sc3ccccc3[n+]2CCCS(=O)(=O)[O-])ccc1O | > 38 µM (inactive) |
| CN(C(=O)C(Cl)Cl)c1ccc(OC(=O)c2ccco2)cc1 | > 38 µM (inactive) |
| CC1=NN(c2cccc(Cl)c2)C(=O)C1 | 34.3 µM |
| O=C1C(Nc2ccccc2)=C/C(=N/S(=O)(=O)c2cccs2)c2ccccc21 | 0.226 µM |
| COc1cc(C(C(=O)NC2CCCCC2)N(CCN2CCOCC2)C(=O)C2COc3ccccc3O2)cc(OC)c1OC (stereo not given) | > 38 µM (inactive) |
| Cc1[nH]nc2c1C1(CCC3(CC1)OCCO3)C(C#N)=C(N)O2 | > 38 µM (inactive) |
| CCS(=O)(=O)C1=NN2C(=N)/C(=C\c3ccc(OC(=O)c4ccco4)cc3)C(=O)N=C2S1 | > 38 µM (inactive) |
| CCc1[nH]nc2c1C(c1ccsc1)C(C#N)=C(N)O2 (stereo not given) | > 38 µM (inactive) |

| SMILES | AC50 |
| --- | --- |
| CCOC(=O)N1CCC(c2cc(=O)n(-c3ccccc3)[nH]2)CC1 | 6.18 µM |
| Cc1ccc(C)c(NC(=O)CSc2n[nH]c(-c3ccccn3)n2)c1 | > 38 µM (inactive) |
| CCOC(=O)N1C(=O)[C@](c2ccc(Cl)cc2)(C(C)C)N1C(=O)OCC | 1.75 µM |
| COc1ccccc1-n1nnnc1S(=O)(=O)Cc1ccc(Cl)cc1 | > 38 µM (inactive) |
| CC(=O)c1cccc(-c2ccc3c(=O)[nH]c(Nc4ccccc4)cc3c2)c1 | 6.06 µM |
| Oc1cnn(-c2ccccc2)c1 | > 38 µM (inactive) |
| CCc1ccc(Nc2n[n+](-c3ccccc3)c(-c3c(Cl)cccc3Cl)s2)cc1 | 8.26 µM |
| CCOC(=O)C1=C(O)c2ccccc2C(=O)/C1=C\c1ccc(CC)cc1 | 7.05 µM |
| O=C1/C(=C/Nc2ccc3c(c2)OCO3)CCc2ccccc21 | 4 µM |
| NS(=O)(=O)c1ccc(NC2=CC(=O)C(=O)c3ccccc32)cc1 | 7.47 µM |
| Cc1ccc(-c2cc(NC(=O)CCl)n(-c3ccccc3)n2)cc1 | 7.65 µM |
| CCCc1c(C)c2c(C)[nH]nc2oc1=O | > 38 µM (inactive) |
| CC(=O)OCCN(C)c1cc(SC(C)C)c2nonc2c1[N+](=O)[O-] | > 38 µM (inactive) |
| O=C(Nc1ccc(F)cc1)c1nn(-c2ccccc2)c(=O)cc1Cl | 22.1 µM |
| O=c1cc(N=Nc2ccc(Cl)cc2)[nH]c(=O)[nH]1 | > 38 µM (inactive) |
| Cc1cc(C)c(S(=O)(=O)/N=C2\C=C(Nc3ccc(C(=O)O)cc3)C(=O)c3ccccc32)c(C)c1 | 0.669 µM |
| CCn1c2ccccc2c2cc(C3C(C#N)=C(N)Oc4n[nH]c(COC)c43)ccc21 (stereo not given) | 8.48 µM |
| Cc1nc2c(-c3ccc(F)cc3)c(C)[nH]n2c(=O)c1Cl | > 38 µM (inactive) |
| O=C(CCl)N(CCc1ccccc1)CCc1ccccc1 | 3.25 µM |
| Nc1ccccc1S(=O)(=O)NC1=NCCCCC1 | > 38 µM (inactive) |
| COc1ccccc1Oc1cc(C#N)c(C#N)cc1-n1nnc2ccccc21 | 16.5 µM |
| CSc1nnc(NC(=O)c2nc(S(=O)(=O)Cc3ccccc3)ncc2Cl)s1 | > 38 µM (inactive) |
| O=C(NCc1cccnc1)/C(=C\c1ccc(-c2ccc(Br)cc2)o1)S(=O)(=O)c1ccccc1 | 24.7 µM |
| CCCc1nn(C)c2c1C(c1ccncc1)C(C#N)=C(N)O2 (stereo not given) | > 38 µM (inactive) |
| O=[N+]([O-])c1c(NCc2ccco2)ccc2nonc12 | > 38 µM (inactive) |
| Cc1nc2ccccc2nc1N/N=C/c1ccc(O)cc1O | > 38 µM (inactive) |
| CCOC(=O)N1CCC2(CC1)C(C#N)=C(N)Oc1n[nH]c(C)c12 | > 38 µM (inactive) |

| SMILES | AC50 |
| --- | --- |
| Cc1c(N=C2C=CC(=O)c3ccccc32)c(=O)n(-c2ccccc2)n1C | 3.51 µM |
| OC(COC(c1ccc(Cl)cc1)c1ccc(Cl)cc1)CN1CCc2ccccc2C1 (stereo not given) | 3.84 µM |
| COc1ccccc1Nc1cc2cc(Br)ccc2c(=O)[nH]1 | 6.07 µM |
| CS(=O)(=O)N1CCC(Oc2ccccc2C(=O)N2CCCCC2CO)CC1 (stereo not given) | > 38 µM (inactive) |
| Nc1ccc(N(CCO)CCO)cc1 | > 38 µM (inactive) |
| CC1=C(C)/C(=N\OS(=O)(=O)c2ccccc2)C=CC1=O | > 38 µM (inactive) |
| CC(OC(=O)c1cc(O)c2ccccc2c1O)C(=O)Nc1ccc(C(N)=O)cc1 (stereo not given) | 10.1 µM |
| Nc1ccc2ncccc2c1 | 15.5 µM |
| O=C(CCl)Nc1ccc(-c2ccccc2)cc1 | 5.56 µM |
| Cc1[nH][nH]c(=O)c1[C@@H](c1ccccc1[N+](=O)[O-])C(C#N)C#N | > 38 µM (inactive) |
| CC(NC(=O)COC(=O)c1cc(NS(=O)(=O)c2ccc(Cl)c([N+](=O)[O-])c2)ccc1O)C1CC2CCC1C2 (stereo not given) | 1.67 µM |
| Clc1ccc2nnnc(-c3ccccc3)c2c1 | 9.57 µM |
| Cc1c(C)n(O)c2ccc3nonc3c12 | 26.8 µM |
| CC1=NN(c2ccc(C)cc2C)C(=O)C1C(c1cccc(O)c1)C1C(=O)N(c2ccc(C)cc2C)N=C1C (stereo not given) | 3.51 µM |
| Cc1[nH]n(C(N)=S)c(=O)c1C(c1ccccc1)C(C#N)C#N (stereo not given) | > 38 µM (inactive) |
| COc1ccc(C(=O)n2nnc3ccccc32)cc1Br | > 38 µM (inactive) |
| O=C1CCCC2=C1C(c1ccc3c(c1)OCO3)c1c([nH]n(-c3ccccc3)c1=O)N2 (stereo not given) | 6.7 µM |
| CSc1nnc(NC(=O)c2nc(S(=O)(=O)Cc3cccc(C)c3)ncc2Cl)s1 | > 38 µM (inactive) |
| N#CC1=C(N)Oc2n[nH]c(-c3ccc(F)cc3)c2C1c1ccncc1 (stereo not given) | 8.32 µM |
| O=c1cc(-c2ccc(Br)cc2)[nH][nH]1 | 13.4 µM |
| Nc1c(O)cccc1C(=O)O | 27.2 µM |
| O=C(CN1C(=O)S/C(=C\C=C\c2ccccc2)C1=O)Nc1ccccc1C(=O)O | 14.1 µM |
| c1ccc(-c2nnc(-c3ccccn3)nc2NC2CCCCC2)cc1 | 7.98 µM |
| COC(=O)c1ccc(NC2=C(Cl)C(=O)OC2OC(=O)c2ccccc2)cc1 (stereo not given) | > 38 µM (inactive) |
